Test results as given in US11414429B2, “Compound or pharmaceutically acceptable salt thereof” (RIKEN, priority 2016, dated 2022).
pIC50: −log10 of the molar value. Where two headings read alike, the source gives them in different places.

Key:
tankyrase 2 (TNKS 2) = target: T1, tankyrase 2 (TNKS 2) (Homo sapiens, UniProt Q9H2K2); assay: Tankyrase inhibitory activity test (ELISA, self-polyADP ribosylation), tankyrase 2; type: biochemical; conditions: self-polyADP ribosylation
T1 construct: 613-1, 116aa; made in house; host or cells: cell-free protein synthesis system
T1 sequence (Q9H2K2 613-1166): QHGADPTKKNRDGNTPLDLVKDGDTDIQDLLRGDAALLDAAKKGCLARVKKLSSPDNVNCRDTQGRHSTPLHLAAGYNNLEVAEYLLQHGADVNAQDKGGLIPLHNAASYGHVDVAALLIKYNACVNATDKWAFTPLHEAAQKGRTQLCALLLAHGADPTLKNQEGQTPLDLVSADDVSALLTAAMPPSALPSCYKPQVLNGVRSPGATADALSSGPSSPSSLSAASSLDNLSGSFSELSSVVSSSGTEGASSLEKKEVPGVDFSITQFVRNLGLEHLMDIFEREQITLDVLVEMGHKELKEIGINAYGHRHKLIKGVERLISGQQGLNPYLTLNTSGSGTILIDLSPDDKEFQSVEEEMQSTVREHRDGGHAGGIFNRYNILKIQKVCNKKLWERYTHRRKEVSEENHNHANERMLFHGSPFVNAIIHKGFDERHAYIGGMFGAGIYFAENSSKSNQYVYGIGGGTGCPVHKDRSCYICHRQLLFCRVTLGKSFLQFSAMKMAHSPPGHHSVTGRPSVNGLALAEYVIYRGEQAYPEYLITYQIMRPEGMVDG
Summary of the method: (§1)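 Flag-tagged TNKS1 (1,024-1,327aa, SAM+PARP) and TNKS2 (613-1,116aa, ANK5+SAM+PARP) were made cell-free and captured overnight at 4 °C on anti-FLAG M2 plates. After 10 min compound preincubation in Tris pH 8.0/MgCl2/DTT buffer, NAD (225 μM) plus biotin-NAD (25 μM) solution was added for 45 min at 30 °C. Auto-PARylation was read by streptavidin-HRP chemiluminescence, giving IC50 from residual activity.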

[1] = tested on: human colorectal cancer cell line, COLO-320DM; assay: Cell proliferation inhibitory activity test (Celltiter-Glo Luminescent Cell Viability Assay); type: cell-based; conditions: COLO-320DM cells, 96 hours
Summary of the method: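 Cells grown in RPMI-1640 with 10% FBS and 2 mM glutamine, seeded overnight, then exposed to compound (1% DMSO final) for 96 h at 37° C., 5% CO2. Viability read by ATP luminescence; GI50 is the concentration reducing cell growth to 50% of DMSO control.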

tankyrase 1 (TNKS 1) = target: T2, tankyrase 1 (TNKS 1) (Homo sapiens, UniProt O95271); assay: Tankyrase inhibitory activity test (ELISA, self-polyADP ribosylation), tankyrase 1; type: biochemical; conditions: self-polyADP ribosylation
T2 construct: 1,024-1,327aa; made in house; host or cells: cell-free protein synthesis system
T2 sequence (O95271 1024-1327): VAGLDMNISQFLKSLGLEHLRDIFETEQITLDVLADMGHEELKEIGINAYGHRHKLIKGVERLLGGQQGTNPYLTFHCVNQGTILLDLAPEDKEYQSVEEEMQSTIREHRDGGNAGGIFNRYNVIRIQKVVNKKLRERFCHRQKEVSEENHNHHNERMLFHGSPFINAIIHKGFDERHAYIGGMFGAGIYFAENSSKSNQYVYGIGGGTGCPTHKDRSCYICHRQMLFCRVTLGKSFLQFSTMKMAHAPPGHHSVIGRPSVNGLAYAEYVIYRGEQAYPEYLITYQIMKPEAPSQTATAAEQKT
Summary of the method: as §1

[2] = tankyrase 2, ELISA, read-out: TNKS2 inhibitory activity (IC50 class)
[3] = read-out: COLO-320 DM cell proliferation inhibitory activity (GI50 class)
[4] = tankyrase 1, ELISA, read-out: TNKS1 inhibitory activity (IC50 class)
[5] = ELISA, class symbols, read-out: TNKS2 (inhibitory activity against tankyrase 2, IC50 value)
[6] = class symbols, read-out: COLO-320 DM (cell proliferation inhibitory activity, GI50 value)
[7] = ELISA, class symbols, read-out: TNKS1 (inhibitory activity against tankyrase 1, IC50 value)

Row | SMILES | pIC50 (tankyrase 2 (TNKS 2); [2]) | GI50 [1, 3] | pIC50 (tankyrase 1 (TNKS 1); [4]) | pIC50 (tankyrase 2 (TNKS 2); [5]) | GI50 [1, 6] | pIC50 (tankyrase 1 (TNKS 1); [7])
1 | CN1CCCc2c1nc(N1CCC3(CC1)C(=O)N(C)c1cc(OCCN4CCS(=O)(=O)CC4)cc(F)c13)[nH]c2=O [Example 361, 6-[2-(1,1-dioxidothio-morpholino)ethoxy]-4-fluoro-1-methyl-1′-(8-methyl-4-oxo-3,4,5,6,7,8-hexahydropy-rido[2,3-d]pyrimidin-2-yl)spiro [indoline-3,4′-piperidin]-2-one] | > 7.70 | 600 to 1000 nM | > 7.70 | – | – | –
2 | CN1CCN(c2cc(F)c3c(c2)N(CC#N)C(=O)C32CCN(c3nc4c(c(=O)[nH]3)CCCN4C)CC2)CC1 [Example 402, [4-fluoro-1′-(8-methyl-4-oxo-3,4,5,6,7,8-hexahydropyrido [2,3-d]py-rimidin-2-yl)-6-(4-methyl-piperazin-1-yl)-2-oxo-spiro[indoline-3,4′-piperidin]-1(2H)-yl] acetonitrile] | – | – | – | > 7.70 | 100 to 600 nM | 6.70 to 7.70
3 | COC(=O)N1CCN(c2cc(F)c3c(c2)N(C)C(=O)C32CCN(c3nc4c(c(=O)[nH]3)CCCN4C)CC2)CC1 [Example 462, methyl 4-[4-fluoro-1-methyl-1′-(8-methyl-4-oxo-3,4,5,6,7,8-hexahydropyrido[2,3-d]pyrimidin-2-yl)-2-oxospiro[indole-3,4′-piperidine]-6-yl]piperazine-1-carboxylate] | – | – | – | > 7.70 | < 100 nM | 6.70 to 7.70
4 | CN1CCCc2c1nc(N1CCC3(CC1)C(=O)N(C)c1cc(N4CCN(C(=O)CO)CC4)cc(F)c13)[nH]c2=O [Example 460, 4-fluoro-6-[4-(2-hydroxyacetyl)piperazin-1-yl]-1-meth-yl-1′-(8-methyl-4-oxo-3,4,5,6,7,8-hexahydropyrido [2,3-d]pyrimidin-2-yl)spiro[indole-3,4′-piperidine]-2-one] | – | – | – | > 7.70 | 100 to 600 nM | > 7.70
5 | CN1C(=O)C2(CCN(c3nc4c(c(=O)[nH]3)CCCC4)CC2)c2c(Cl)cc(O)cc21 [Example 234, 4-chloro-6-hydroxy-1-methyl-1′-(4-oxo-3,4,5,6,7,8-hexahydro-quinazolin-2-yl)spiro [indoline-3,4′-piperidin]-2-one] | > 7.70 | 100 to 600 nM | > 7.70 | – | – | –
6 | COc1ccc(Cl)c2c1N(CC(F)(F)F)C(=O)C21CCN(c2nc3c(c(=O)[nH]2)CCCN3)CC1 [Example 443, 4-chloro-1′-(4-hy-droxy-3,5,6,7,8-tetra-hydropyrido[2,3-d]pyrimidin-2-yl)-7-methoxy-1-(2,2,2-trifluoroeth-yl)spiro[indole-3,4′-piperidine]-2-one] | – | – | – | > 7.70 | 600 to 1000 nM | > 7.70
7 | CN1CCCc2c1nc(N1CCC3(CC1)C(=O)N(C)c1cc(OCCNS(=O)(=O)N(C)C)cc(F)c13)[nH]c2=O [Example 428, 6-[2-(N,N-dimethyl-sulfamoyl)amino-ethoxy]-4-fluoro-1-methyl-1′-(8-methyl-4-oxo-3,4,5,6,7,8-hexahydro-pyrido[2,3-d]pyrimi-din-2-yl)spiro [indoline-3,4′-piperidin]-2(1 H)-one] | – | – | – | > 7.70 | 100 to 600 nM | > 7.70
8 | CN1CCCc2c1nc(N1CCC3(CC1)C(=O)N(C)c1cc(N4CCC(S(C)(=O)=O)CC4)cc(F)c13)[nH]c2=O [Example 464, 4-fluoro-1-methyl-1′-(8-methyl-4-oxo-3,4,5,6,7,8-hexahydropyrido[2,3-d]pyrimidin-2-yl)l-6-(4-methylsulfonylpiperidin-1-yl)spiro[indole-3,4′-piperidine]-2(1H)-one] | – | – | – | > 7.70 | 100 to 600 nM | > 7.70
